According to patent US12371454B2, “Cyclic peptide compound having Kras inhibitory action” (priority 2019, dated 2025):
Starred links: 1 amine or outer side, 2 acyl side, 3 side chain; linkers in the order of their positions; H or OH if unused. Positions of bridges follow the written chain, without caps; N, C: chain ends. Non-standard residues stand in square brackets, D forms with d. Residues, ends and D or L forms follow the SMILES beside them. *: point of attachment. hPhe(3-Cl-4-CF3) = N[C@@H](CCc1ccc(C(F)(F)F)c(Cl)c1)C(=O)O; X82 = O=C([C@H](Cc1cccc(OC(F)(F)F)c1)N[*:1])[*:2]; Thiomorpholino(1,1-dioxo) = O=S1(=O)CCN(*)CC1; NMePhe(4-Cl) = CN[C@@H](Cc1ccc(Cl)cc1)C(=O)O; NMePhe(4-Me) = CN[C@@H](Cc1ccc(C)cc1)C(=O)O; X10 = CC(C)=CC[C@H](N[*:1])C(=O)[*:2]; X70 = CC(C)(O)COCCN(CC(=O)[*:2])[*:1]; NMeCha = CN[C@@H](CC1CCCCC1)C(=O)O; X2 = C=CC[C@](C)(N[*:1])C(=O)[*:2]; Ala(cPr) = N[C@@H](CC1CC1)C(=O)O; NMeChg = CN[C@H](C(=O)O)C1CCCCC1; NMeF = CN[C@@H](Cc1ccccc1)C(=O)O; NMeI = CC[C@H](C)[C@H](NC)C(=O)O; N(CH2CH2)2CF2 = FC1(F)CCN(*)CC1; NMeD = CN[C@@H](CC(=O)O)C(=O)O; NMeL = CN[C@@H](CC(C)C)C(=O)O; NPrAla = CCCN[C@@H](C)C(=O)O; NMeV = CN[C@H](C(=O)O)C(C)C; d(β3hA) = C[C@@H](N)CC(=O)O; NMeA = CN[C@@H](C)C(=O)O; Piperidide = C1CCN(*)CC1; Ac5c = NC1(C(=O)O)CCCC1; Aze = O=C(O)[C@@H]1CCN1; Aib = CC(C)(N)C(=O)O; Sar = CNCC(=O)O

Molecular target: T1, Kras and SOS1 (biotin-tagged human Kras loaded with GDP, His-tagged human SOS1) (Homo sapiens, UniProt P01116, G12D)
T1 construct: made in house; host or cells: E. coli (stated for Kras only)
Test: Protein-protein interaction inhibition between Kras and SOS1 (KrasGl2D-SOS PPI) using AlphaScreen
Type: binding
Conditions: AlphaScreen; biotin-tagged human Kras loaded with GDP, His-tagged human SOS1; read-out: KRAS G12D-SOS PPI IC50
In short: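 Donor beads (nickel) hold His-SOS1; acceptor beads (streptavidin) hold biotin-Kras bound to GDP. Signal measured at 520-620 nm following 680 nm excitation.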

T1 sequence (P01116 1-188 isoform P01116-2 G12D): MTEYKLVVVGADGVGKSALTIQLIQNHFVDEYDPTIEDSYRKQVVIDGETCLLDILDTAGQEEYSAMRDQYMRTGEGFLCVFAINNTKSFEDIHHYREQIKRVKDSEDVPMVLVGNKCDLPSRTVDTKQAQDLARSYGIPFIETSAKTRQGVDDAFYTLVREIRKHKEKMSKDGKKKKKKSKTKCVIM

SMILES | IC50 [nM]
CC(C)C[C@H]1C(=O)N[C@@H](CC2CC2)C(=O)N(C)CC(=O)N(C)CC(=O)N(C)[C@@H](CC2CCCCC2)C(=O)N(C)CC(=O)N[C@@H](CCc2ccc(C(F)(F)F)c(Cl)c2)C(=O)N2CCC[C@H]2C(=O)NC2(CCCC2)C(=O)N(C)[C@@H](C(C)C)C(=O)N(C)[C@H](C(=O)N2CCCCC2)CC(=O)N1C [Compound 421] ([NMeL][Ala(cPr)][Sar][Sar][NMeCha][Sar][hPhe(3-Cl-4-CF3)]P[Ac5c][NMeV][NMeD]-Piperidide; lactam N-11) | 10
CC[C@H](C)[C@@H]1NC(=O)[C@H](CC(C)C)N(C)C(=O)C[C@@H](C(=O)N2CCCCC2)N(C)C(=O)[C@H](C(C)C)N(C)C(=O)C(C)(C)NC(=O)[C@H](CC(=O)N2CCC(F)(F)CC2)N(C)C(=O)[C@H](CCc2ccc(C(F)(F)F)c(Cl)c2)NC(=O)CN(C)C(=O)[C@H](CC2CCCCC2)N(C)C(=O)CN(C)C(=O)CN(C)C1=O [Compound 463] ([NMeL]I[Sar][Sar][NMeCha][Sar][hPhe(3-Cl-4-CF3)][NMeD](N(CH2CH2)2CF2)[Aib][NMeV][NMeD]-Piperidide; lactam N-11) | 4.4
CC[C@H](C)[C@@H]1NC(=O)[C@H](CC(C)C)N(C)C(=O)C[C@@H](C(=O)N(C)C)N(C)C(=O)[C@H]([C@@H](C)CC)N(C)C(=O)[C@H](C)NC(=O)[C@@H](C)NC(=O)[C@H](CCc2ccc(C(F)(F)F)c(Cl)c2)NC(=O)CN(C)C(=O)[C@H](Cc2ccc(C)cc2)N(C)C(=O)[C@@H]2CCN2C(=O)[C@H](C)N(C)C1=O [Compound 382] ([NMeL]I[NMeA][Aze][NMePhe(4-Me)][Sar][hPhe(3-Cl-4-CF3)][dA]A[NMeI][NMeD]-NMe2; lactam N-11) | 35
CC[C@H](C)[C@@H]1NC(=O)[C@H](C)N(C)C(=O)C[C@@H](C(=O)N2CCCCC2)NC(=O)[C@H](CC(C)C)N(C)C(=O)[C@H](Cc2ccccc2)N(C)C(=O)[C@H](CC(C)C)NC(=O)[C@H](Cc2cccc(OC(F)(F)F)c2)NC(=O)CN(C)C(=O)[C@H](Cc2ccc(Cl)cc2)N(C)C(=O)CN(C)C(=O)CN(C)C1=O [Compound 473] ([NMeA]I[Sar][Sar][NMePhe(4-Cl)][Sar][X82]L[NMeF][NMeL]D-Piperidide; lactam N-11) | 410
CC(C)=CC[C@@H]1NC(=O)[C@H](CC(C)C)N(C)C(=O)C[C@@H](C(=O)N2CCCCC2)N(C)C(=O)[C@H](C2CCCCC2)N(C)C(=O)C2(CCCC2)NC(=O)[C@@H]2CCCN2C(=O)[C@H](CCc2ccc(C(F)(F)F)c(Cl)c2)NC(=O)CN(C)C(=O)[C@H](CC2CCCCC2)N(C)C(=O)CN(C)C(=O)CN(C)C1=O [Compound 1134] ([NMeL][X10][Sar][Sar][NMeCha][Sar][hPhe(3-Cl-4-CF3)]P[Ac5c][NMeChg][NMeD]-Piperidide; lactam N-11) | 6
CC[C@H](C)[C@@H]1NC(=O)[C@H](CC(C)C)N(C)C(=O)C[C@@H](C(=O)N(C)C)N(C)C(=O)[C@H]([C@@H](C)CC)N(C)C(=O)C2(CCCC2)NC(=O)CN(CCOCC(C)(C)O)C(=O)[C@H](CCc2ccc(C(F)(F)F)c(Cl)c2)NC(=O)CN(C)C(=O)[C@H](Cc2ccc(C)cc2)N(C)C(=O)[C@@H]2CCN2C(=O)[C@H](C)N(C)C1=O [Compound 2034] ([NMeL]I[NMeA][Aze][NMePhe(4-Me)][Sar][hPhe(3-Cl-4-CF3)][X70][Ac5c][NMeI][NMeD]-NMe2; lactam N-11) | 2
CC[C@H](C)[C@@H]1NC(=O)[C@H](CC(C)C)N(C)C(=O)C[C@@H](C(=O)N2CCS(=O)(=O)CC2)N(C)C(=O)[C@H](C(C)C)N(C)C(=O)C2(CCCC2)NC(=O)[C@@H]2CCCN2C(=O)[C@H](CCc2ccc(C(F)(F)F)c(Cl)c2)NC(=O)CN(C)C(=O)[C@H](CC2CCCCC2)N(C)C(=O)[C@@H]2CCN2C(=O)[C@H](C)N(C)C1=O [Compound 1238] ([NMeL]I[NMeA][Aze][NMeCha][Sar][hPhe(3-Cl-4-CF3)]P[Ac5c][NMeV][NMeD]-{Thiomorpholino(1,1-dioxo)}; lactam N-11) | 9.9
C=CC[C@]1(C)NC(=O)[C@@H]2CCCN2C(=O)[C@H](CCc2ccc(C(F)(F)F)c(Cl)c2)NC(=O)CN(C)C(=O)[C@H](CC2CCCCC2)N(C)C(=O)CN(C)C(=O)CN(C)C(=O)[C@H]([C@@H](C)CC)NC(=O)[C@H](CC(C)C)N(C)C(=O)C[C@@H](C)NC(=O)[C@H](C(C)C)N(C)C1=O [Compound 242] (cyclo(I[Sar][Sar][NMeCha][Sar][hPhe(3-Cl-4-CF3)]P[X2][NMeV][d(β3hA)][NMeL])) | 27
CCCN1C(=O)C[C@@H](C)NC(=O)[C@H](C(C)C)N(C)C(=O)C2(CCCC2)NC(=O)[C@@H]2CCCN2C(=O)[C@H](CCc2ccc(C(F)(F)F)c(Cl)c2)NC(=O)CN(C)C(=O)[C@H](CC2CCCCC2)N(C)C(=O)CN(C)C(=O)CN(C)C(=O)[C@H]([C@@H](C)CC)NC(=O)[C@@H]1C [Compound 114] (cyclo([Ac5c][NMeV][d(β3hA)][NPrAla]I[Sar][Sar][NMeCha][Sar][hPhe(3-Cl-4-CF3)]P)) | 20
